Measurements reported in US20030153056A1, “Glycosyltransferase proteins” (priority 2000, published 2003).

Legend:
[1] = molecular target: T1, Brainiac β1-3-N-acetylglucosaminyltransferase (Drosophila melanogaster, UniProt Q24157); test: Substrate specificities of Brainiac β1-3-N-acetylglucosaminyltransferase (acceptor panel, microsomal preparations); assay type: biochemical; conditions: panel of mono- and disaccharides with aglycons and oligosaccharides
T1 construct: The full coding region of Brainiac was prepared by PCR using genomic DNA; made in house; host or cells: High Five insect cells (baculovirus vector pVL1393); microsomal fractions
T1 sequence (Q24157 1-325): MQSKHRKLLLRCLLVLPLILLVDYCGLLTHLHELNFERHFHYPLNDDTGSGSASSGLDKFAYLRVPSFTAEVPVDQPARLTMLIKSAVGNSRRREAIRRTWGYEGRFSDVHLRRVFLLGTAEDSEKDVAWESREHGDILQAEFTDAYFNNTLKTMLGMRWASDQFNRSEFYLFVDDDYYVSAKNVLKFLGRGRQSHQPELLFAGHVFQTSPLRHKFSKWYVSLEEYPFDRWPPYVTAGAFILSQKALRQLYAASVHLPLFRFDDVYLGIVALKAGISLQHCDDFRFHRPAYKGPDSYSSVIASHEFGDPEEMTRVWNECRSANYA
Method: Fringe-Myc and Fringe-NNN-myc were cloned into baculovirus vector pVL1393 (Pharmingen) and expressed in High Five™ cells. Microsomal fractions were prepared by hypotonic lysis ultracentrifugation and solubilised 1:2 (vol/vol) in 20 mM Cacodylate pH 6.5, 1% Triton-CF54, 5 MM MnCl2 containing Leupeptin and Aprotinin as described previously (Amado et al., 1998). For glycosyltransferase assays, 5 μl of this suspension were added to a total of 50 μl reaction mixture containing 25 mM Cacodylate pH 6.5, 0.25% Triton-CF54, 5 mM MnCl2, 500 mM free sugar, 100 μM UDP-^14C-sugar (1280-2000 cpm/nmol). Reactions were incubated at 37° C. for 45-60 minutes, followed by Dowex-1 anion exchange chromatography and scintillation counting of 50% of the flow-through.
Brainiac-full was cloned into baculovirus vector pVL1393 (Pharmingen) and expressed in High Five cells. […] Initial analysis of activity was done with five monosaccharides and four donor sugar nucleotides as described in FIG. 5 for Fringe. Assays with the acceptors listed in Table 1 were performed as described for Fringe except no additional detergent was added. Reactions with glycolipid substrates were performed in the presence of 0.5% N-octylglucoside in 50 ul reaction volume containing 10 μg glycolipid.
In the latter case the acceptor sugar was not determined.

[2] = molecular target: T1, Brainiac β1-3-N-acetylglucosaminyltransferase; test: as above; assay type: biochemical; conditions: microsomes of pVL-Brainiac infected High Five cells, background of irrelevant construct subtracted, donor UDP-GlcNAc

Acceptor for Brainiac, in words (detailed analysis) [1]: not found to be acceptors
Brainiac activity with substrate ([2]; substrate 2 mM): 0.00 nmol/h/mg
Brainiac activity with substrate ([2]; substrate 20 mM): 0.00 nmol/h/mg
Compound: OC[C@H]1OC(O)[C@H](O)[C@@H](O)[C@H]1O (stereo partly drawn) [D-Gal]
